The source of these data is patent US20260109732A1, “LIPID AMINES” (ModernaTX, Inc., priority 2021, published 2026).

A short description of data set [1]: Diameter and PDI from DLS measurements of mRNA nanoparticles with lipid amines. The data set is classed as physicochemical. A digest of the protocol:
(§1)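 DLS gave size and PDI, and Ribogreen gave encapsulation, for luciferase- or CFTR-mRNA nanoparticles (N:P 4.93). Particles came from IL1/DSPC/cholesterol/PEG-DMG-2K mixed at pH 4, mRNA-loaded, neutralized with TRIS pH 8.12, and then treated with lipid amine SA50 in pH 7.5 buffer.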

Data set [2] is described as follows: Encapsulation of mRNA nanoparticles with lipid amines using Ribogreen assay. The data set is classed as physicochemical. In short, it runs like this:
as §1

The subject of data set [3] is HeLa cells. Description: Luciferase Protein Expression Assay in HeLa Cells. As to conditions: LNPs encapsulating Luciferase mRNA, 25 ng per well, N=4 wells; 5 h serum-free then 24 h; ONE-Glo. The format is cell-based, Human. A digest of the protocol:
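Luminescence output, average RLU across N=4 wells, was measured with ONE-Glo after cell lysis. Before that, HeLa cells were exposed to 25 ng/well luciferase-mRNA nanoparticles (PBS control) for 5 h serum-free, then cultured overnight (24 h) in complete MEM.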

The subject of data set [4] is HeLa cells. Description: CFTR Protein Expression Assay in HeLa Cells. As to conditions: LNPs encapsulating CFTR mRNA, N=4 wells; 5 h serum-free then 24 h; immunofluorescence vs PBS control. The data set is classed as cell-based, Human. A digest of the protocol: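 Readout is fold-change in per-cell CFTR immunofluorescence intensity (488 nm, confocal imaging) relative to PBS-treated cells, from 4 replicate wells. LNPs encapsulating CFTR mRNA were applied serum-free for 5 h, followed by 24 h in complete medium before PFA fixation.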

The mark [5] stands for this setting: CFTR mRNA nanoparticle with lipid amine.
Setting [6] is: Luciferase mRNA nanoparticle modified with lipid amine.

`CCC(N)(CC)CCNCCCCN(CCC(N)(CC)CC)C(=O)O[C@H]1CC[C@@]2(C)C(=CC[C@H]3[C@@H]4CC[C@H]([C@H](C)CCCC(C)C)[C@@]4(C)CC[C@@H]32)C1.Cl.Cl.Cl` [SA133, (3S,8S,9S,10R,13R,14S,17R)-10,13-dimethyl-17-((R)-6-methylheptan-2-yl)-2,3,4,7,8,9,10,11,12,13,14,15,16,17-tetradecahydro-1H-cyclopenta[a]phenanthren-3-yl (3-amino-3-ethylpentyl)(4-((3-amino-3-ethylpentyl)amino)butyl)carbamate trihydrochloride]: the “Diameter (nm)” value in data set [1] (setting [5]) was 73.5 nm; in data set [1] (setting [6]), 73 nm. Also, the PDI is given as 0.11 in data set [1] (setting [5]) and 0.17 in data set [1] (setting [6]). For the same molecule, the “% Encapsulation (Ribogreen)” value in data set [2] (setting [5]) turned out to be 99.4%; in data set [2] (setting [6]), 99.0%. Besides, the “Average Relative Light Units ± Standard Deviation” value in data set [3] was determined as 26696.2 ± 5831.4 Relative Light Units. The “Average fold-change in CFTR signal intensity per cell compared to buffer control ± standard deviation” value in data set [4] stood at 18.5 ± 0.8 fold-change.
With `CC(C)CCC[C@@H](C)[C@H]1CC[C@H]2[C@@H]3CC=C4C[C@@H](OC(=O)CCCC(=O)N(CCCN)CCCCCCCCN)CC[C@]4(C)[C@H]3CC[C@]12C.Cl.Cl` [SA134, (3S,8S,9S,10R,13R,14S,17R)-10,13-dimethyl-17-((R)-6-methylheptan-2-yl)-2,3,4,7,8,9,10,11,12,13,14,15,16,17-tetradecahydro-1H-cyclopenta[a]phenanthren-3-yl 5-((8-aminooctyl)(3-aminopropyl)amino)-5-oxopentanoate dihydrochloride], the “Diameter (nm)” value is on record as 74.1 nm in data set [1] (setting [5]) and 72 nm in data set [1] (setting [6]). Moreover, the PDI in data set [1] (setting [5]) is given as 0.10; in data set [1] (setting [6]) it was 0.13. Also, the “% Encapsulation (Ribogreen)” value in data set [2] (setting [5]) worked out at 98.7%; in data set [2] (setting [6]), 99.5%. Further, in data set [3], the “Average Relative Light Units ± Standard Deviation” value stood at 29194.3 ± 6336.9 Relative Light Units. The “Average fold-change in CFTR signal intensity per cell compared to buffer control ± standard deviation” value in data set [4] was 17.7 ± 0.9 fold-change.
On to `CC[C@H](CC[C@@H](C)[C@H]1CC[C@H]2[C@@H]3CC=C4C[C@@H](OC(=O)CCCC(=O)N(CCCN)CCCCCCCCN)CC[C@]4(C)[C@H]3CC[C@]12C)C(C)C.Cl.Cl` [SA135, (3S,8S,9S,10R,13R,14S,17R)-17-((2R,5R)-5-ethyl-6-methylheptan-2-yl)-10,13-dimethyl-2,3,4,7,8,9,10,11,12,13,14,15,16,17-tetradecahydro-1H-cyclopenta[a]phenanthren-3-yl 5-((8-aminooctyl)(3-aminopropyl)amino)-5-oxopentanoate dihydrochloride], for which the “Diameter (nm)” value in data set [1] (setting [5]) came out at 73.5 nm; in data set [1] (setting [6]) it was 71 nm. Also, the PDI in data set [1] (setting [5]) is given as 0.11; in data set [1] (setting [6]), 0.12. The entries for the “% Encapsulation (Ribogreen)” value in data set [2] (setting [5]) and in data set [2] (setting [6]) were 98.0% and 99.3%, respectively. Also, the “Average Relative Light Units ± Standard Deviation” value in data set [3] turned out to be 27499.8 ± 7269.5 Relative Light Units. The “Average fold-change in CFTR signal intensity per cell compared to buffer control ± standard deviation” value in data set [4] is listed as 16.6 ± 1.5 fold-change.
Regarding `CC[C@H](CC[C@@H](C)[C@H]1CC[C@H]2[C@@H]3CC=C4C[C@@H](OC(=O)CCCC(=O)N(CCCCNCCC(C)N)CCC(C)N)CC[C@]4(C)[C@H]3CC[C@]12C)C(C)C.Cl.Cl.Cl` (stereo partly drawn) [SA136, (3S,8S,9S,10R,13R,14S,17R)-17-((2R,5R)-5-ethyl-6-methylheptan-2-yl)-10,13-dimethyl-2,3,4,7,8,9,10,11,12,13,14,15,16,17-tetradecahydro-1H-cyclopenta[a]phenanthren-3-yl 5-((3-aminobutyl)(4-((3-aminobutyl)amino)butyl)amino)-5-oxopentanoate trihydrochloride], the “Diameter (nm)” value in data set [1] (setting [5]) stood at 76.9 nm; in data set [1] (setting [6]), 75 nm. Further, the PDI in data set [1] (setting [5]) is given as 0.13; in data set [1] (setting [6]) it was 0.16. For the same molecule, the “% Encapsulation (Ribogreen)” value in data set [2] (setting [5]) was 97.7%; in data set [2] (setting [6]) it was 99.7%. Also, in data set [3], the “Average Relative Light Units ± Standard Deviation” value was determined as 16245.8 ± 6554.6 Relative Light Units. For the same molecule, the “Average fold-change in CFTR signal intensity per cell compared to buffer control ± standard deviation” value in data set [4] is given as 15.8 ± 1.4 fold-change.
Consider `CC[C@H](CC[C@@H](C)[C@H]1CC[C@H]2[C@@H]3CC=C4C[C@@H](OC(=O)CCCC(=O)N(CCCCNCCC(C)(C)N)CCC(C)(C)N)CC[C@]4(C)[C@H]3CC[C@]12C)C(C)C.Cl.Cl.Cl` [SA137, (3S,8S,9S,10R,13R,14S,17R)-17-((2R,5R)-5-ethyl-6-methylheptan-2-yl)-10,13-dimethyl-2,3,4,7,8,9,10,11,12,13,14,15,16,17-tetradecahydro-1H-cyclopenta[a]phenanthren-3-yl 5-((3-amino-3-methylbutyl)(4-((3-amino-3-methylbutyl)amino)butyl)amino)-5-oxopentanoate trihydrochloride], for which the figures for the “Diameter (nm)” value in data set [1] (setting [5]) and in data set [1] (setting [6]) were 76.3 nm and 79 nm, respectively. For the same molecule, the PDI in data set [1] (setting [5]) is listed as 0.13; in data set [1] (setting [6]), 0.20. The “% Encapsulation (Ribogreen)” value in data set [2] (setting [5]) came to 98.3%; in data set [2] (setting [6]), 99.6%. The “Average Relative Light Units ± Standard Deviation” value in data set [3] was 15239.8 ± 6248.1 Relative Light Units. Further, the “Average fold-change in CFTR signal intensity per cell compared to buffer control ± standard deviation” value in data set [4] worked out at 14.0 ± 0.8 fold-change.
For the molecule `CC(C)CCC[C@@H](C)[C@H]1CC[C@H]2[C@@H]3CC=C4C[C@@H](SSCCC(=O)N(CCCCNCCC(C)(C)N)CCC(C)(C)N)CC[C@]4(C)[C@H]3CC[C@]12C.Cl.Cl.Cl` [SA138, N-(3-amino-3-methylbutyl)-N-(4-((3-amino-3-methylbutyl)amino)butyl)-3-(((3S,8S,9S,10R,13R,14S,17R)-10,13-dimethyl-17-((R)-6-methylheptan-2-yl)-2,3,4,7,8,9,10,11,12,13,14,15,16,17-tetradecahydro-1H-cyclopenta[a]phenanthren-3-yl)disulfaneyl)propanamide trihydrochloride], the “Diameter (nm)” value is 89.6 nm in data set [1] (setting [5]) and 72 nm in data set [1] (setting [6]). Further, the PDI came out at 0.12 in data set [1] (setting [5]) and 0.19 in data set [1] (setting [6]). The “% Encapsulation (Ribogreen)” value in data set [2] (setting [5]) is 96.4%; in data set [2] (setting [6]), 99.2%. Besides, the “Average Relative Light Units ± Standard Deviation” value in data set [3] worked out at 22039.8 ± 8550.1 Relative Light Units. In data set [4], the “Average fold-change in CFTR signal intensity per cell compared to buffer control ± standard deviation” value is listed as 12.1 ± 1.1 fold-change.
As to `CC(C)CCC[C@@H](C)[C@H]1CC[C@H]2[C@@H]3CC=C4C[C@@H](SSCCC(=O)N(CCCCCCCC(C)(C)N)CCC(C)(C)N)CC[C@]4(C)[C@H]3CC[C@]12C.Cl.Cl` [SA139, N-(3-amino-3-methylbutyl)-N-(8-amino-8-methylnonyl)-3-(((3S,8S,9S,10R,13R,14S,17R)-10,13-dimethyl-17-((R)-6-methylheptan-2-yl)-2,3,4,7,8,9,10,11,12,13,14,15,16,17-tetradecahydro-1H-cyclopenta[a]phenanthren-3-yl)disulfaneyl)propanamide dihydrochloride], the “Diameter (nm)” value stood at 68.9 nm in data set [1] (setting [5]) and 72 nm in data set [1] (setting [6]). Also, the PDI in data set [1] (setting [5]) and in data set [1] (setting [6]) was 0.12 throughout. The “% Encapsulation (Ribogreen)” value in data set [2] (setting [5]) and in data set [2] (setting [6]) was 99.4% throughout. For the same molecule, the “Average Relative Light Units ± Standard Deviation” value in data set [3] is 24497.9 ± 3998.9 Relative Light Units. The “Average fold-change in CFTR signal intensity per cell compared to buffer control ± standard deviation” value in data set [4] was 13.3 ± 1.2 fold-change.
As to `CC(C)CCC[C@@H](C)[C@H]1CC[C@H]2[C@@H]3CC=C4C[C@@H](OC(=O)CCCC(=O)N(CCCCCCCC(C)(C)N)CCC(C)(C)N)CC[C@]4(C)[C@H]3CC[C@]12C.Cl.Cl` [SA141, (3S,8S,9S,10R,13R,14S,17R)-10,13-dimethyl-17-((R)-6-methylheptan-2-yl)-2,3,4,7,8,9,10,11,12,13,14,15,16,17-tetradecahydro-1H-cyclopenta[a]phenanthren-3-yl 5-((3-amino-3-methylbutyl)(8-amino-8-methylnonyl)amino)-5-oxopentanoate dihydrochloride], the “Diameter (nm)” value is reported as 70.8 nm in data set [1] (setting [5]) and 73 nm in data set [1] (setting [6]). For the same molecule, the PDI in data set [1] (setting [5]) was 0.12; in data set [1] (setting [6]), 0.15. Also, the “% Encapsulation (Ribogreen)” value in data set [2] (setting [5]) and in data set [2] (setting [6]) was 98.9% in each case. In data set [3], the “Average Relative Light Units ± Standard Deviation” value is recorded as 35801.9 ± 8884.3 Relative Light Units. The “Average fold-change in CFTR signal intensity per cell compared to buffer control ± standard deviation” value in data set [4] worked out at 14.9 ± 0.6 fold-change.
